Test results: US20240139211A1, “METHODS AND COMPOSITIONS FOR TREATING AMYOTROPHIC LATERAL SCLEROSIS” (Amylyx Pharmaceuticals, Inc., priority 2022, published 2024)
Where two headings read alike, the source gives them in different places.

Experiments:
[1] = biological target: T1, OCT1 (Homo sapiens, UniProt O15245); test: Substrate of OCT1, uptake in HEK293 cells
T1 sequence (O15245 1-554): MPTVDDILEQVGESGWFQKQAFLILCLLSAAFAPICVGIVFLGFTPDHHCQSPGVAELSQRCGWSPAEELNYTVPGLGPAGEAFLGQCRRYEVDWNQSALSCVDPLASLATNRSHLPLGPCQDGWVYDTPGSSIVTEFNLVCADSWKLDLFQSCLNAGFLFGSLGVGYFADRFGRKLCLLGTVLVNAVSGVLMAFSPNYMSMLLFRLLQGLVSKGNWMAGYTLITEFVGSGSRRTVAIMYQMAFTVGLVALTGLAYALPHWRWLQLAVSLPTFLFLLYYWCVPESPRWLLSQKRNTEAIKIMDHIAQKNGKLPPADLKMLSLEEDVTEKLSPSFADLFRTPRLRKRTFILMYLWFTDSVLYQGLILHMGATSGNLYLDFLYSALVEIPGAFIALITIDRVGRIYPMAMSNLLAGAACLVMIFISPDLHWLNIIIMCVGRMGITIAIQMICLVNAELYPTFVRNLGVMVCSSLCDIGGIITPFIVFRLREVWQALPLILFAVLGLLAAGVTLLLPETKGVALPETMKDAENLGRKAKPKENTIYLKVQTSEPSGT
Text: (§1) Vector-transfected HEK cells were used as a control.

[2] = biological target: OATP1B3 (Homo sapiens, UniProt Q9NPD5); test: Substrate of OATP1B3, uptake in HEK293 cells
OATP1B3, sequence (Q9NPD5 whole entry): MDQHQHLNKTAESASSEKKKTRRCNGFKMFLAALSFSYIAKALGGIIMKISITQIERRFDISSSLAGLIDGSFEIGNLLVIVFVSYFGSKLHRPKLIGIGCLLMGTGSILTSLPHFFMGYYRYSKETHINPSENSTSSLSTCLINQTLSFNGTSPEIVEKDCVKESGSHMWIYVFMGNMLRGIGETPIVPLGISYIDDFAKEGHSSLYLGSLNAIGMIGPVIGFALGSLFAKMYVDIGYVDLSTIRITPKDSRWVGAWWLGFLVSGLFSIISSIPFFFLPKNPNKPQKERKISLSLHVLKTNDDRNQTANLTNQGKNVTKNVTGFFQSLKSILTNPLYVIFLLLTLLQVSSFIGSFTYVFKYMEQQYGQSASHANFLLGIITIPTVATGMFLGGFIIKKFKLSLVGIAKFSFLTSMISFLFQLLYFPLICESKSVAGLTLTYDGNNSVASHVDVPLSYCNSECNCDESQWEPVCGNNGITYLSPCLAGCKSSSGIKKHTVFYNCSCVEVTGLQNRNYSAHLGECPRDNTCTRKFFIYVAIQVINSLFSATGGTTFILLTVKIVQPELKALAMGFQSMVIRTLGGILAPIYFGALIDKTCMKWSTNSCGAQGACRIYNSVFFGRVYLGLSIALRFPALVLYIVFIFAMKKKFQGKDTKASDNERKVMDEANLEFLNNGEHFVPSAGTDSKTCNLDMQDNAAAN
Text: as §1

[3] = biological target: T2, OAT3 (Homo sapiens, UniProt Q8TCC7); test: Inhibitor of OAT3, probe substrate uptake; details: for Inhibition of OAT3 / Inhibitor of OAT3: two concentrations per test article; for potency estimated from few doses: read-out: Estimated IC50, OAT3
T2 sequence (Q8TCC7 1-542): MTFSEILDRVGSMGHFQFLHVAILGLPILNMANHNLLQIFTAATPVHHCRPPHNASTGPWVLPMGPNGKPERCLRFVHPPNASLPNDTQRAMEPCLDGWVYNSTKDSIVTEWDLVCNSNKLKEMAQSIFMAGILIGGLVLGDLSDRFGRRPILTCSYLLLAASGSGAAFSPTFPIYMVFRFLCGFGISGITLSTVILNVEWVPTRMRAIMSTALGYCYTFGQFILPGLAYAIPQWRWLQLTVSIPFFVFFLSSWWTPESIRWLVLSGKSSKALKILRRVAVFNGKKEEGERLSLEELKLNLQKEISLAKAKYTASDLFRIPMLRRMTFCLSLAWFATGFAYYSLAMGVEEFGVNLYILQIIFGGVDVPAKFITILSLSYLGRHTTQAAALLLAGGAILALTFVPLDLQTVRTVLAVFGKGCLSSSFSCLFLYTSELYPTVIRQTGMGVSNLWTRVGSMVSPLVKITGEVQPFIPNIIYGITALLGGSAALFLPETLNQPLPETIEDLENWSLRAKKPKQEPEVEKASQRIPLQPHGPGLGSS

[4] = biological target: T1, OCT1; test: Inhibitor of OCT1, probe substrate uptake; details: for Inhibition of OCT1 / Inhibitor of OCT1: two concentrations per test article; for potency estimated from few doses: read-out: Estimated IC50, OCT1
[5] = biological target: MATE2K (Homo sapiens, UniProt Q86VL8); test: Inhibitor of MATE2-K, probe substrate uptake; details: for Inhibition of MATE2-K / Inhibitor of MATE2-K: two concentrations per test article; for potency estimated from few doses: read-out: Estimated IC50, MATE2-K
MATE2K, sequence (Q86VL8 1-566 isoform Q86VL8-3): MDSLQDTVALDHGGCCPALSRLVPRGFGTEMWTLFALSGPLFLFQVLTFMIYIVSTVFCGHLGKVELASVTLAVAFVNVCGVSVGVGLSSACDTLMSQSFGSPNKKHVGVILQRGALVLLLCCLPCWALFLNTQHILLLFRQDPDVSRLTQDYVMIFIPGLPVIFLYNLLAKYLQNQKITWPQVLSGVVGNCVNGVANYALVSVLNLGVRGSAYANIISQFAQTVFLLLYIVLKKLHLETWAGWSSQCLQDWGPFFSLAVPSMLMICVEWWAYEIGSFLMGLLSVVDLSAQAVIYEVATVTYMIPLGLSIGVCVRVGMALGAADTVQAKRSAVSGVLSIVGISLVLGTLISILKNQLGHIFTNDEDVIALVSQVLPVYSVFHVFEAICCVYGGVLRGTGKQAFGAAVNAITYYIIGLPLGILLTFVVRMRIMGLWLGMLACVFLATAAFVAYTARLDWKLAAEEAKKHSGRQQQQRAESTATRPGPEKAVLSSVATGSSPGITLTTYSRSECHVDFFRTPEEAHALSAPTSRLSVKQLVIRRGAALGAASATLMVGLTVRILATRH

[6] = biological target: P-gp (Homo sapiens, UniProt P08183); test: Inhibitor of P-gp, 3H-digoxin efflux in Caco-2 cells; details: for potency estimated from few doses: read-out: Estimated IC50, P-gp
P-gp, sequence (P08183 whole entry): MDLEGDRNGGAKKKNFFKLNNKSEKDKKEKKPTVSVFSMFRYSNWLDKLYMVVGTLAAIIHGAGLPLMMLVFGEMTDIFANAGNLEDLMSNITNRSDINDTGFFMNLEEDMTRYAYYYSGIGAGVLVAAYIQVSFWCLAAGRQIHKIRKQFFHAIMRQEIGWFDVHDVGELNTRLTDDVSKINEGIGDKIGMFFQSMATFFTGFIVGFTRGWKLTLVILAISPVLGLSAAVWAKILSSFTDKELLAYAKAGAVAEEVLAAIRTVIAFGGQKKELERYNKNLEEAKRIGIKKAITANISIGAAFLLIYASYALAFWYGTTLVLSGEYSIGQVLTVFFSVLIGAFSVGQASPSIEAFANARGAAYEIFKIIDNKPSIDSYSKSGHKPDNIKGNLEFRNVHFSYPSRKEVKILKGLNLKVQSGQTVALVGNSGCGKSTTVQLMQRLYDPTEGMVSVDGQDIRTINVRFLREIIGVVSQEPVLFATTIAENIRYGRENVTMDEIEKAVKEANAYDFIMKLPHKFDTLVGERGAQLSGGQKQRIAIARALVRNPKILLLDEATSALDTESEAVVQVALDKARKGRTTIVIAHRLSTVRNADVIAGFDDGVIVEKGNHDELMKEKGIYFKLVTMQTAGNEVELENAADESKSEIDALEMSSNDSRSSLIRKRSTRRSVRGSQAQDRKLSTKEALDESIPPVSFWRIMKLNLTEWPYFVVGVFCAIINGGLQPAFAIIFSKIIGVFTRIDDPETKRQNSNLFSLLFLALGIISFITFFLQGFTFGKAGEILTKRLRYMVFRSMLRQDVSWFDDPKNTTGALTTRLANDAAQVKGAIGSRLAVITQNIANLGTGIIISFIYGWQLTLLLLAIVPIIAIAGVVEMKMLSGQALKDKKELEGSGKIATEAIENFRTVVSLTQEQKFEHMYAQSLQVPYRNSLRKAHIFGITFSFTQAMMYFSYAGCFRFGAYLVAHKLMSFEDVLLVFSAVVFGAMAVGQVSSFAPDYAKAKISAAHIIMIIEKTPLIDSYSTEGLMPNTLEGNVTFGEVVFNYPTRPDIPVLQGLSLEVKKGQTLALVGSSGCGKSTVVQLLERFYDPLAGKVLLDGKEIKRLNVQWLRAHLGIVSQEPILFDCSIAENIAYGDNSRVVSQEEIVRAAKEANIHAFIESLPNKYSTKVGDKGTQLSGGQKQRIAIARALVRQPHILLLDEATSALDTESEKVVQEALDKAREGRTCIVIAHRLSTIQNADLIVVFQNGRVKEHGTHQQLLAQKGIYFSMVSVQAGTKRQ

[7] = system: CYP3A4 mRNA; test: CYP3A4 gene expression induction in hepatocyte cultures; details: for Inducer of CYP3A4 (conclusion): gene expression and enzyme activity, three donors
[8] = biological target: T3, BCRP (Homo sapiens, UniProt Q9UNQ0); test: Inhibitor of BCRP, 3H-estrone-3-sulfate efflux in Caco-2 cells
T3 sequence (Q9UNQ0 1-655): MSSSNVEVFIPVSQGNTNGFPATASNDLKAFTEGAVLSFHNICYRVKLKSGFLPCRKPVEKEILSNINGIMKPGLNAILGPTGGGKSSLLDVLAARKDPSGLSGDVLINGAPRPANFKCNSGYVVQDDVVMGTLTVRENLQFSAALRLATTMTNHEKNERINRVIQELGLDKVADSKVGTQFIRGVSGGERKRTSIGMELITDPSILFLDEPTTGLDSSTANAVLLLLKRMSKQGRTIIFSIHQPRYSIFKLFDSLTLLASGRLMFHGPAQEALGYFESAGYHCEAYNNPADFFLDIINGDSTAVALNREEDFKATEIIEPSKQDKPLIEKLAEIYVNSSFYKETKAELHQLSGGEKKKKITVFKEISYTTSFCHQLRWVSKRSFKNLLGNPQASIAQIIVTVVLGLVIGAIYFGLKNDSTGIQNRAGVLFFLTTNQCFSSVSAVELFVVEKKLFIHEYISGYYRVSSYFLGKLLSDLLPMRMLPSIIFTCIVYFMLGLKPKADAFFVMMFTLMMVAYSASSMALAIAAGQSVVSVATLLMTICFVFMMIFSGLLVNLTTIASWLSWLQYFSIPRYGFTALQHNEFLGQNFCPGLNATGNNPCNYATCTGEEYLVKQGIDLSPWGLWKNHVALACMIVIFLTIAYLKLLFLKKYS

[9] = Caco-2, two concentrations per test article
[10] = estimated from two concentrations, Caco-2 cells
[11] = two concentrations per test article, Caco-2 cells
[12] = higher test concentration (UDCA: second assay)
[13] = lower test concentration (UDCA: second assay)
[14] = estimated from two concentrations
[15] = Caco-2, estimated from two doses

## O=C(O)Cc1ccccc1 [Phenylacetic acid, phenylacetic acid]
[1]; 1 and 10 μM
  Substrate of OCT1: not a substrate
[1]; test article 1 and 10 μM
  Substrate of OCT1: No
[2]; 1 μM
  Uptake in OATP1B3 cells: 5.27 pmol/minute/mg protein
[2]; 10 μM
  Net OATP1B3 uptake remaining with inhibitor: 79.0%
  Uptake in OATP1B3 cells: 19.3 pmol/min/mg
[2]; 1 and 10 μM
  Substrate of OATP1B3: identified as a substrate
[2]; test article 1 and 10 μM
  Substrate of OATP1B3: Yes
[3]
  Inhibition of OAT3: did not inhibit
  Inhibitor of OAT3: No
[4]
  Inhibition of OCT1: did not inhibit
  Inhibitor of OCT1: No
[5]
  Inhibition of MATE2-K: did not inhibit
  Inhibitor of MATE2-K: No
[6]; [9]
  Inhibitor of P-gp: weak inhibitor
[6]; higher test concentration
  Remaining P-gp activity, % of the control: 75.6%
[6]; lower test concentration
  Remaining P-gp activity, % of the control: 85.9%
[6]; [10]
  potency estimated from few doses: > 7500 µM
[6]; [11]
  Inhibitor of P-gp: Yes
[7]
  Inducer of CYP3A4 (conclusion): do not identify phenylacetic acid as an inducer of CYP3A4
[8]; [9]
  Inhibitor of BCRP: not an inhibitor
[8]; [12]
  Remaining BCRP activity, % of the control: 199%
[8]; [13]
  Remaining BCRP activity, % of the control: 162%
[8]; [11]
  Inhibitor of BCRP: No

## C[C@H](CCC(=O)NCC(=O)O)[C@H]1CC[C@H]2[C@@H]3[C@@H](O)C[C@@H]4C[C@H](O)CC[C@]4(C)[C@H]3CC[C@]12C [Glycoursodeoxycholic acid, glycoursodeoxycholic acid]
[3]; 100 μM
  Uptake activity remaining, OAT3: 24.5%
[3]; [14]
  potency estimated from few doses: < 100 µM
[3]
  Inhibition of OAT3: inhibited
  Inhibitor of OAT3: Yes
[4]
  Inhibition of OCT1: did not inhibit
  Inhibitor of OCT1: No
[5]
  Inhibition of MATE2-K: did not inhibit
  Inhibitor of MATE2-K: No
[6]; [9]
  Inhibitor of P-gp: identified as an inhibitor
[6]; [10]
  potency estimated from few doses: < 10 µM
[6]; [11]
  Inhibitor of P-gp: Yes
[7]; Donor 2
  Maximum fold induction of CYP3A4 gene expression: 3.40 fold
[7]; Donor 3
  Maximum fold induction of CYP3A4 gene expression: 3.30 fold
[7]
  Inducer of CYP3A4 (conclusion): did not meet the classification requirements to be identified as an inducer of CYP3A4
[8]; [9]
  Inhibitor of BCRP: identified as an inhibitor
[8]; read-out: Estimated IC50, BCRP, estimated from two concentrations, Caco-2 cells
  potency estimated from few doses: > 100 µM
[8]; [11]
  Inhibitor of BCRP: Yes

## ursodeoxycholic acid
[1]; 1 and 10 μM
  Substrate of OCT1: not a substrate
[1]; test article 1 and 10 μM
  Substrate of OCT1: No
[2]; 1 and 10 μM
  Substrate of OATP1B3: not a substrate
[2]; test article 1 and 10 μM
  Substrate of OATP1B3: No
[3]; 50 μM
  Uptake activity remaining, OAT3: 27.6%
[3]; [14]
  potency estimated from few doses: < 50 µM
[3]; estimated from two doses
  potency estimated from few doses: < 50 µM
[3]
  Inhibition of OAT3: inhibited
  Inhibitor of OAT3: Yes
[4]; [14]
  potency estimated from few doses: < 500 µM
[4]; estimated from two doses
  potency estimated from few doses: < 500 µM
[4]
  Inhibition of OCT1: inhibited
  Inhibitor of OCT1: Yes
[5]; [14]
  potency estimated from few doses: > 500 µM
[5]; estimated from two doses
  potency estimated from few doses: > 500 µM
[5]
  Inhibition of MATE2-K: inhibited
  Inhibitor of MATE2-K: Yes
[6]; [9]
  Inhibitor of P-gp: identified as an inhibitor
[6]; higher test concentration
  Remaining P-gp activity, % of the control: 13.0%
[6]; lower test concentration
  Remaining P-gp activity, % of the control: 348%
[6]; [15]
  potency estimated from few doses: < 500 µM
[6]; [10]
  potency estimated from few doses: < 500 µM
[6]; [11]
  Inhibitor of P-gp: Yes^a
[8]; [9]
  Inhibitor of BCRP: not an inhibitor
[8]; first assay, 500 μM
  BCRP activity, % of the control: 130%
[8]; [12]
  Remaining BCRP activity, % of the control: 155%
[8]; [13]
  Remaining BCRP activity, % of the control: 228%
[8]; [11]
  Inhibitor of BCRP: No

## O=C(O)CCCc1ccccc1 [PB, sodium phenylbutyrate]
[3]; 25 μM
  Uptake activity remaining, OAT3: 44.3%
[3]; [14]
  potency estimated from few doses: < 25 µM
[3]
  Inhibition of OAT3: inhibited
  Inhibitor of OAT3: Yes
[4]
  Inhibition of OCT1: did not inhibit
  Inhibitor of OCT1: No
[5]
  Inhibition of MATE2-K: did not inhibit
  Inhibitor of MATE2-K: No
[6]; [9]
  Inhibitor of P-gp: not an inhibitor
[6]; higher test concentration
  Remaining P-gp activity, % of the control: 106%
[6]; lower test concentration
  Remaining P-gp activity, % of the control: 93.5%
[6]; [11]
  Inhibitor of P-gp: No
[8]; [9]
  Inhibitor of BCRP: not an inhibitor
[8]; [12]
  Remaining BCRP activity, % of the control: 84.7%
[8]; [13]
  Remaining BCRP activity, % of the control: 125%
[8]; [11]
  Inhibitor of BCRP: No

## tauroursodeoxycholic acid [TUDCA]
[1]; 1 and 10 μM
  Substrate of OCT1: not a substrate
[1]; test article 1 and 10 μM
  Substrate of OCT1: No
[2]; 1 and 10 μM
  Uptake by OATP1B3: 5.90 pmol/minute/mg protein
[2]; test article 1 and 10 μM
  Substrate of OATP1B3: Yes
[3]; [14]
  potency estimated from few doses: > 50 µM
[3]; estimated from two doses
  potency estimated from few doses: > 50 µM
[3]
  Inhibition of OAT3: inhibited
  Inhibitor of OAT3: Yes
[4]
  Inhibition of OCT1: did not inhibit
  Inhibitor of OCT1: No
[5]; concentration not stated (5 and 50 μM tested)
  Uptake activity remaining, MATE2-K: 44.3%
[5]; [14]
  potency estimated from few doses: < 50 µM
[5]; estimated from two doses
  potency estimated from few doses: < 50 µM
[5]
  Inhibition of MATE2-K: inhibited
  Inhibitor of MATE2-K: Yes
[6]; [9]
  Inhibitor of P-gp: identified as an inhibitor
[6]; higher test concentration
  Remaining P-gp activity, % of the control: 57.3%
[6]; lower test concentration
  Remaining P-gp activity, % of the control: 78.8%
[6]; [15]
  potency estimated from few doses: > 50 µM
[6]; [10]
  potency estimated from few doses: > 50 µM
[6]; [11]
  Inhibitor of P-gp: Yes
[7]
  Inducer of CYP3A4 (conclusion): did not meet the classification requirements to be identified as an inducer
[8]; [9]
  Inhibitor of BCRP: not an inhibitor
[8]; [12]
  Remaining BCRP activity, % of the control: 92.3%
[8]; [13]
  Remaining BCRP activity, % of the control: 111%
[8]; [11]
  Inhibitor of BCRP: No
